Values quoted from earlier work in patent US20250367260A1, “TIRZEPATIDE COMPOSITIONS AND PREPARATION METHOD” (Galenicum Health S.L.U., priority 2024, published 2025).

In the case of `O=S(=O)(O)CC(O)CN(CCO)CCO` (stereo not drawn) [DIPSO, 3-(N,N-Bis[2-hydroxyethyl]amino)-2-hydroxypropanesulfonic acid], the pKa is given as “≈ 7.6”.

In the case of `O=S(=O)(O)CCN1CCN(CCO)CC1` [HEPES, 4-(2-hydroxyethyl)-1-piperazineethanesulfonic acid], the pKa is given as “≈ 7.5”.

For `O=S(=O)(O)CCCN1CCN(CCO)CC1` [HEPPS, 4-(2-Hydroxyethyl)-1-piperazinepropanesulfonic acid], the pKa is given as “≈ 8.1”.

In the case of `O=S(=O)(O)CC(O)CNC(CO)(CO)CO` (stereo not drawn) [TAPSO, 3-[N-Tris(hydroxymethyl)methylamino]-2-hydroxypropanesulfonic acid], the pKa is given as “≈ 7.6”.

For `O=S(=O)(O)CCNC(CO)(CO)CO` [TES, N-[Tris(hydroxymethyl)methyl]-2-aminoethanesulfonic acid], the pKa is listed as “≈ 7.4”.

In the case of `O=C(O)CNC(CO)(CO)CO` [Tricine, N-tris(hydroxymethyl)methylglycine], the pKa is given as “≈ 8.2”.
